Source: patent US8575091B1, “Amylin analogues and pharmaceutical compositions thereof” (Novo Nordisk A/S, priority 2012, dated 2013)
Numbered stars: 1 amine (or outer) side, 2 acyl side, 3 side chain; on linkers, the order of the positions; unused ones are H or OH. Bridge positions count the residues as written; N and C are the ends. Side chains are listed from the residue outwards. Peptide text beside a SMILES is read from it. * marks the point of attachment. C20 diacid = O=C(O)CCCCCCCCCCCCCCCCCCC(=O)*; γGlu = O=C(O)[C@H](CCC(=O)[*:2])N[*:1]

Target: T1, human amylin receptor (amylin 3(a) receptor: human calcitonin receptor + RAMP-3) (Homo sapiens, UniProt O60896+P30988)
T1 construct: expressed in transfected cells
T1 sequence (P30988 25-474): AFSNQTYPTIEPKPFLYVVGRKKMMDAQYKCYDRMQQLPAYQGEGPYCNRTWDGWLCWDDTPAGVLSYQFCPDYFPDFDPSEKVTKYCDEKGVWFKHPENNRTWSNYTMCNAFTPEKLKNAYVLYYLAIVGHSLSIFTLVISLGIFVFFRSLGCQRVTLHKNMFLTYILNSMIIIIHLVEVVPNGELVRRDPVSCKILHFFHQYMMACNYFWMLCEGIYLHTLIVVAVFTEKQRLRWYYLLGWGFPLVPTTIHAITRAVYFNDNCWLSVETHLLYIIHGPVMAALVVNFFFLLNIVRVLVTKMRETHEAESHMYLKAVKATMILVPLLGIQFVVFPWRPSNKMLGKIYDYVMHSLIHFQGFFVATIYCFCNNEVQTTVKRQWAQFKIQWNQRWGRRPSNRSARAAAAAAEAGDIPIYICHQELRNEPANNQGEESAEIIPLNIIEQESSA
T1 sequence (O60896 24-148 partner): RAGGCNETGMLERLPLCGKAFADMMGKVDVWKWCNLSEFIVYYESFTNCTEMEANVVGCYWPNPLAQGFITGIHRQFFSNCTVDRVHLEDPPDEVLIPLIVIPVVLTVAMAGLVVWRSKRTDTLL
Test: Assay (II)a functional assay, human amylin receptor (CRE luciferase, BHK cells)
Format: cell-based

[1] = Table 6, human functional selectivity (hCTR EC50 / hAmylin-R EC50)
[2] = Table 6a, human functional selectivity (hCTR EC50 / hAmylin-R EC50), at least 5
[3] = Table 6i, hCTR funct. EC50 / hAmylin-R funct. EC50
[4] = Table 6j, hCTR funct. EC50 / hAmylin-R funct. EC50
[5] = Table 6k, hCTR funct. EC50 / hAmylin-R funct. EC50

Compound | Ratio hCT/hAmylin funct. [1] | Ratio hCT/hAmylin funct. [2] | Ratio hCT/hAmylin funct. [3] | Ratio hCT/hAmylin funct. [4] | Ratio hCT/hAmylin funct. [5] | Ratio hCT/hAmylin funct. (hCTR funct. EC50 divided by hAmylin-R funct. EC50)
CC[C@H](C)[C@H](NC(=O)[C@H](C)NC(=O)CNC(=O)[C@H](Cc1ccccc1)NC(=O)[C@H](CC(N)=O)NC(=O)[C@@H]1CCCN1C(=O)[C@H](CO)NC(=O)[C@H](CO)NC(=O)[C@H](Cc1c[nH]cn1)NC(=O)[C@H](CCCNC(=N)N)NC(=O)[C@H](CC(C)C)NC(=O)[C@H](Cc1ccccc1)NC(=O)[C@H](CCC(=O)O)NC(=O)[C@H](C)NC(=O)[C@H](CC(C)C)NC(=O)[C@H](CCCNC(=N)N)NC(=O)[C@H](CCC(N)=O)NC(=O)[C@@H](NC(=O)[C@H](C)NC(=O)[C@@H]1CSSC[C@H](NC(=O)[C@@H](N)CCCCNC(=O)CC[C@H](NC(=O)CCCCCCCCCCCCCCCCCCC(=O)O)C(=O)O)C(=O)N[C@@H](CC(N)=O)C(=O)N[C@@H]([C@@H](C)O)C(=O)N[C@@H](C)C(=O)N[C@@H]([C@@H](C)O)C(=O)N1)[C@@H](C)O)C(=O)N1CCC[C@H]1C(=O)N[C@@H](CO)C(=O)N[C@@H](CO)C(=O)N[C@H](C(=O)N[C@@H](CC(N)=O)C(=O)N[C@H](C(=O)NCC(=O)N[C@@H](CCCNC(=N)N)C(=O)N[C@@H](CCC(=O)O)C(=O)N[C@H](C(=O)N[C@@H](Cc1ccc(O)cc1)C(N)=O)[C@@H](C)O)C(C)C)[C@@H](C)O [Example 108] (H-K([γGlu-C20 diacid])CNTATCATQRLAEFLRHSSPNFGAIPSSTNVGRETY-NH2; disulfide 2-7 (inferred); N-terminus and C-terminus assumed) | 6.5 | 6.5 | 6.5 | 6.5 | 6.5 | –
CC[C@H](C)[C@H](NC(=O)[C@H](C)NC(=O)CNC(=O)[C@H](Cc1ccccc1)NC(=O)[C@H](CC(N)=O)NC(=O)[C@@H]1CCCN1C(=O)[C@H](CO)NC(=O)[C@H](CO)NC(=O)[C@H](Cc1c[nH]cn1)NC(=O)[C@H](CCCNC(=N)N)NC(=O)[C@H](CC(C)C)NC(=O)[C@H](Cc1ccccc1)NC(=O)[C@H](CO)NC(=O)[C@H](C)NC(=O)[C@H](CC(C)C)NC(=O)[C@H](CCCNC(=N)N)NC(=O)[C@H](CCC(N)=O)NC(=O)[C@@H](NC(=O)[C@H](C)NC(=O)[C@@H]1CSSC[C@H](NC(=O)[C@@H](N)CCCCNC(=O)CC[C@H](NC(=O)CC[C@H](NC(=O)CCCCCCCCCCCCCCCCCCC(=O)O)C(=O)O)C(=O)O)C(=O)N[C@@H](CC(N)=O)C(=O)N[C@@H]([C@@H](C)O)C(=O)N[C@@H](C)C(=O)N[C@@H]([C@@H](C)O)C(=O)N1)[C@@H](C)O)C(=O)N1CCC[C@H]1C(=O)N[C@@H](CO)C(=O)N[C@@H](CO)C(=O)N[C@H](C(=O)N[C@@H](CC(N)=O)C(=O)N[C@H](C(=O)NCC(=O)N1CCC[C@H]1C(=O)N[C@@H](CCC(=O)O)C(=O)N[C@H](C(=O)N[C@@H](Cc1ccc(O)cc1)C(N)=O)[C@@H](C)O)C(C)C)[C@@H](C)O [Example 120] (H-K([γGlu-γGlu-C20 diacid])CNTATCATQRLASFLRHSSPNFGAIPSSTNVGPETY-NH2; disulfide 2-7 (inferred); N-terminus and C-terminus assumed) | 8.1 | 8.1 | – | 8.1 | 8.1 | –
CC(C)C[C@H](NC(=O)[C@H](CCCNC(=N)N)NC(=O)[C@H](CCC(N)=O)NC(=O)[C@@H](NC(=O)[C@H](C)NC(=O)[C@@H]1CSSC[C@H](NC(=O)[C@@H](N)CCCCNC(=O)CC[C@H](NC(=O)CC[C@H](NC(=O)CCCCCCCCCCCCCCCCCCC(=O)O)C(=O)O)C(=O)O)C(=O)N[C@@H](CC(N)=O)C(=O)N[C@@H]([C@@H](C)O)C(=O)N[C@@H](C)C(=O)N[C@@H]([C@@H](C)O)C(=O)N1)[C@@H](C)O)C(=O)N[C@@H](C)C(=O)N[C@@H](CC(=O)O)C(=O)N[C@@H](Cc1ccccc1)C(=O)N[C@@H](CC(C)C)C(=O)N[C@@H](CCCNC(=N)N)C(=O)N[C@@H](Cc1c[nH]cn1)C(=O)N[C@@H](CO)C(=O)N[C@@H](CO)C(=O)N1CCC[C@H]1C(=O)N[C@@H](CC(N)=O)C(=O)N[C@@H](Cc1ccccc1)C(=O)NCC(=O)N[C@@H](C)C(=O)N1CCC[C@H]1C(=O)N[C@@H](CC(C)C)C(=O)N[C@@H](CO)C(=O)N[C@@H](CO)C(=O)N[C@H](C(=O)N[C@@H](CC(N)=O)C(=O)N[C@H](C(=O)NCC(=O)N[C@@H](CO)C(=O)N[C@@H](CC(=O)O)C(=O)N[C@H](C(=O)N[C@@H](Cc1ccc(O)cc1)C(N)=O)[C@@H](C)O)C(C)C)[C@@H](C)O [Example 1] (H-K([γGlu-γGlu-C20 diacid])CNTATCATQRLADFLRHSSPNFGAPLSSTNVGSDTY-NH2; disulfide 2-7; N-terminus assumed) | 12.0 | 12.0 | – | – | – | 12.0
CC[C@H](C)[C@H](NC(=O)[C@H](C)NC(=O)CNC(=O)[C@H](Cc1ccccc1)NC(=O)[C@H](CC(N)=O)NC(=O)[C@@H]1CCCN1C(=O)[C@H](CO)NC(=O)[C@H](CO)NC(=O)[C@H](Cc1c[nH]cn1)NC(=O)[C@H](CCCNC(=N)N)NC(=O)[C@H](CC(C)C)NC(=O)[C@H](Cc1ccccc1)NC(=O)[C@H](CC(N)=O)NC(=O)[C@H](C)NC(=O)[C@H](CC(C)C)NC(=O)[C@H](CCCNC(=N)N)NC(=O)[C@H](CCC(N)=O)NC(=O)[C@@H](NC(=O)[C@H](C)NC(=O)[C@@H]1CSSC[C@H](NC(=O)[C@@H](N)CCCCNC(=O)COCCOCCNC(=O)CCCCCCCCCCCCCCCCCCC(=O)O)C(=O)N[C@@H](CC(N)=O)C(=O)N[C@@H]([C@@H](C)O)C(=O)N[C@@H](C)C(=O)N[C@@H]([C@@H](C)O)C(=O)N1)[C@@H](C)O)C(=O)N1CCC[C@H]1C(=O)N[C@@H](CO)C(=O)N[C@@H](CO)C(=O)N[C@H](C(=O)N[C@@H](CC(N)=O)C(=O)N[C@H](C(=O)NCC(=O)N[C@@H](CO)C(=O)N[C@@H](CC(N)=O)C(=O)N[C@H](C(=O)N[C@@H](Cc1ccc(O)cc1)C(N)=O)[C@@H](C)O)C(C)C)[C@@H](C)O [Example 43] | 6.5 | 6.5 | – | 6.5 | 6.5 | –
CC[C@H](C)[C@H](NC(=O)[C@H](C)NC(=O)CNC(=O)[C@H](Cc1ccccc1)NC(=O)[C@H](CC(N)=O)NC(=O)[C@@H]1CCCN1C(=O)[C@H](CO)NC(=O)[C@H](CO)NC(=O)[C@H](Cc1c[nH]cn1)NC(=O)[C@H](CCCNC(=N)N)NC(=O)[C@H](CC(C)C)NC(=O)[C@H](Cc1ccccc1)NC(=O)[C@H](CCC(=O)O)NC(=O)[C@H](C)NC(=O)[C@H](CC(C)C)NC(=O)[C@H](CCCNC(=N)N)NC(=O)[C@H](CCC(N)=O)NC(=O)[C@@H](NC(=O)[C@H](C)NC(=O)[C@@H]1CSSC[C@H](NC(=O)[C@@H](N)CCCCNC(=O)CC[C@H](NC(=O)CC[C@H](NC(=O)CCCCCCCCCCCCCCCCCCC(=O)O)C(=O)O)C(=O)O)C(=O)N[C@@H](CC(N)=O)C(=O)N[C@@H]([C@@H](C)O)C(=O)N[C@@H](C)C(=O)N[C@@H]([C@@H](C)O)C(=O)N1)[C@@H](C)O)C(=O)N1CCC[C@H]1C(=O)N[C@@H](CO)C(=O)N[C@@H](CO)C(=O)N[C@H](C(=O)N[C@@H](CC(N)=O)C(=O)N[C@H](C(=O)NCC(=O)N[C@@H](Cc1c[nH]cn1)C(=O)N[C@@H](CC(N)=O)C(=O)N[C@H](C(=O)N[C@@H](Cc1ccc(O)cc1)C(N)=O)[C@@H](C)O)C(C)C)[C@@H](C)O [Example 87] (H-K([γGlu-γGlu-C20 diacid])CNTATCATQRLAEFLRHSSPNFGAIPSSTNVGHNTY-NH2; disulfide 2-7) | 3.8 | – | 3.8 | 3.8 | – | –
CC[C@H](C)[C@H](NC(=O)[C@H](C)NC(=O)CNC(=O)[C@H](Cc1ccccc1)NC(=O)[C@H](CC(N)=O)NC(=O)[C@@H]1CCCN1C(=O)[C@H](CO)NC(=O)[C@H](CO)NC(=O)[C@H](Cc1c[nH]cn1)NC(=O)[C@H](CCCNC(=N)N)NC(=O)[C@H](CC(C)C)NC(=O)[C@H](Cc1ccccc1)NC(=O)[C@H](CC(N)=O)NC(=O)[C@H](C)NC(=O)[C@H](CC(C)C)NC(=O)[C@H](CCCNC(=N)N)NC(=O)[C@H](CCC(N)=O)NC(=O)[C@@H](NC(=O)[C@H](C)NC(=O)[C@@H]1CSSC[C@H](NC(=O)[C@@H](N)CCCCNC(=O)CC[C@H](NC(=O)CCCCCCCCCCCCCCCCCCC(=O)O)C(=O)O)C(=O)N[C@@H](CC(N)=O)C(=O)N[C@@H]([C@@H](C)O)C(=O)N[C@@H](C)C(=O)N[C@@H]([C@@H](C)O)C(=O)N1)[C@@H](C)O)C(=O)N1CCC[C@H]1C(=O)N[C@@H](CO)C(=O)N[C@@H](CO)C(=O)N[C@H](C(=O)N[C@@H](CC(N)=O)C(=O)N[C@H](C(=O)NCC(=O)N[C@@H](CO)C(=O)N[C@@H](CCCCN)C(=O)N[C@H](C(=O)N[C@@H](Cc1ccc(O)cc1)C(N)=O)[C@@H](C)O)C(C)C)[C@@H](C)O [Example 35] (H-K([γGlu-C20 diacid])CNTATCATQRLANFLRHSSPNFGAIPSSTNVGSKTY-NH2; disulfide 2-7; N-terminus assumed) | 15.0 | 15.0 | – | 15.0 | 15.0 | –
